Assay results taken from ChEMBL document CHEMBL3301361, “Experimental in vitro DMPK and physicochemical data on a set of publicly disclosed compounds”.

Tests used:
in vitro [1] = conditions: hepatocytes
in vitro [2] = conditions: human
physchem = conditions: octan-1-ol/water

Compound | hepatocyte CLint (in vitro [1]) | microsomal CLint (in vitro [2]; microsomes) | microsomal CLint (in vitro [2]; liver microsomes) | logD (physchem; pH 7.4) | logD (physchem; pH 7.4, LogD7.4)
CC(C)c1ccc(NC(=O)Cn2cnc3c2c(=O)n(C)c(=O)n3C)cc1 | 16.6 µL/min/1e6 cells | 18.2 µL/min/mg | – | – | –
CCn1c(SCC(=O)Nc2cc(C)on2)nnc1-c1cccnc1 | 75.9 µL/min/1e6 cells | 7.76 µL/min/mg | – | – | –
Cc1ccc(-c2nnc(SCC(=O)N3CCN(c4ccccc4)CC3)o2)cc1 | > 150 µL/min/1e6 cells | > 150 µL/min/mg | – | – | –
CCCCn1c(SCC(=O)Nc2cc(C)on2)nnc1-c1ccco1 | > 150 µL/min/1e6 cells | > 150 µL/min/mg | – | – | –
O=C(c1cccc(Cl)c1Cl)N1CCN(c2ccccn2)CC1 | > 150 µL/min/1e6 cells | – | > 150 µL/min/mg | – | –
O=C(C1CCN(c2nnc(-n3cccc3)s2)CC1)N1CCc2ccccc2C1 | 46.8 µL/min/1e6 cells | – | 83.2 µL/min/mg | 3.7 | –
CS(=O)(=O)c1ccc(-c2cnc(N)c(C(=O)Nc3ccccc3)n2)cc1 | 19.1 µL/min/1e6 cells | 4.17 µL/min/mg | – | – | –
CN(CC(=O)N(Cc1ccc(C2CCCCC2)cc1)c1ccc(C(=O)O)c(O)c1)S(=O)(=O)c1c(F)c(F)c(F)c(F)c1F | 74.1 µL/min/1e6 cells | 129 µL/min/mg | – | – | –
N#Cc1ccc(C(=O)Nc2ccc(-n3ccnc3)nc2)cc1 | 20.4 µL/min/1e6 cells | 6.31 µL/min/mg | – | – | –
N#Cc1cnc(N2CCN(C(=O)[C@@H]3CCCC[C@H]3C(=O)NC3(C#N)CC3)CC2)s1 | 5.25 µL/min/1e6 cells | 6.76 µL/min/mg | – | – | –
N#CC1(NC(=O)[C@@H]2CCCC[C@H]2C(=O)N2CCN(c3nc4ccncc4s3)CC2)CC1 | 6.61 µL/min/1e6 cells | 17.8 µL/min/mg | – | – | –
COc1cc(Nc2nc3c(cc2F)ncn3[C@@H](CO)c2ccc(F)cn2)n[nH]1 | 27.5 µL/min/1e6 cells | 7.24 µL/min/mg | – | – | 2.18
Nc1ncnc2c1ncn2[C@@H]1O[C@H](CSCCCNC(=O)Nc2ccccc2)[C@@H](O)[C@H]1O | 28.2 µL/min/1e6 cells | 9.77 µL/min/mg | – | – | 1.9
CCN(CC)c1ccc2cc(C(C)=O)c(=O)oc2c1 | > 150 µL/min/1e6 cells | – | 120 µL/min/mg | – | 2
COc1nc(N)nc2c1ncn2[C@@H]1O[C@H](CO)[C@@H](O)[C@H]1O | 10.5 µL/min/1e6 cells | 42.7 µL/min/mg | – | -0.58 | –
CC1(C)[C@@H]2CC[C@@]1(CS(=O)(=O)N1CCN(c3ccc(C#N)cn3)CC1)C(=O)C2 | > 150 µL/min/1e6 cells | – | 103 µL/min/mg | – | 2.46
Cc1cc(NS(=O)(=O)c2ccc(Cl)cc2)no1 | 8.51 µL/min/1e6 cells | < 3 µL/min/mg | – | – | –
O=CN(O)CCCP(=O)(O)O [FOSMIDOMYCIN] | < 3 µL/min/1e6 cells | – | 3.02 µL/min/mg | – | –
Cc1ccc2c(NC[C@](O)(CC(C)(C)c3cc(F)cc4c3OCC4)C(F)(F)F)cccc2n1 [MAPRACORAT] | 50.1 µL/min/1e6 cells | – | > 150 µL/min/mg | – | –
CC(C(=O)O)c1ccc(C(=O)c2cccs2)cc1 (centres undefined) [SUPROFEN] | 16 µL/min/1e6 cells | < 3 µL/min/mg | – | – | –
C[C@@H](O)[C@H]1C(=O)N2C(C(=O)OCOC(=O)C(C)(C)C)=C(SC3CN(C4=NCCS4)C3)[C@H](C)[C@H]12 [TEBIPENEM PIVOXIL] | > 150 µL/min/1e6 cells | – | > 150 µL/min/mg | – | –
C[C@@H](O)[C@H]1C(=O)N2C(C(=O)O)=C(SC3CN(C4=NCCS4)C3)[C@H](C)[C@H]12 [TEBIPENEM] | 4.79 µL/min/1e6 cells | – | 23.4 µL/min/mg | – | –
CC1Sc2c(C(=O)O)c(=O)c3cc(F)c(N4CCNCC4)cc3n21 (centres undefined) [ULIFLOXACIN] | < 3 µL/min/1e6 cells | – | 13.8 µL/min/mg | – | –

Continued, values first:

hepatocyte CLint (in vitro [1]) | microsomal CLint (in vitro [2]; microsomes) | microsomal CLint (in vitro [2]; liver microsomes) | logD (physchem; pH 7.4) | logD (physchem; pH 7.4, LogD7.4) | Compound
> 150 µL/min/1e6 cells | – | > 150 µL/min/mg | – | – | CN(CCc1ccc(O)c2[nH]c(=O)sc12)CCN(C)C(=O)CCOCCc1ccccc1
138 µL/min/1e6 cells | – | 70.8 µL/min/mg | – | – | O=C(NCc1ccccc1)c1cc(-c2ccco2)on1
148 µL/min/1e6 cells | > 150 µL/min/mg | – | 3.8 | – | CCOC(=O)c1c(-c2ccccc2)nc2cc(C)ccn12
> 150 µL/min/1e6 cells | – | 94 µL/min/mg | – | – | CCOC(=O)CN(c1ccccc1C)S(=O)(=O)c1ccc(Cl)cc1
> 150 µL/min/1e6 cells | > 150 µL/min/mg | – | – | 2.5 | COc1ccc(CNC(=O)CSc2nc3cccnc3s2)cc1
91.2 µL/min/1e6 cells | – | 70.8 µL/min/mg | – | – | Cc1cccc(NC(=O)Nc2cccc3ccccc23)c1
97.7 µL/min/1e6 cells | 4.9 µL/min/mg | – | – | 2.47 | O=C(O)CCc1ccc(OCc2cccc(Oc3ccccc3)c2)cc1
46 µL/min/1e6 cells | – | > 150 µL/min/mg | – | – | CCOc1ccc2oc(C(=O)NC(CCSC)c3nc4ncccc4[nH]3)c(C)c2c1 (centres undefined)
89.1 µL/min/1e6 cells | – | 95.5 µL/min/mg | – | – | CC(C)CNc1nc(N2CCN(CC3CCCOC3)CC2)ncc1C(=O)NCc1ccccc1 (centres undefined)
20 µL/min/1e6 cells | 23 µL/min/mg | – | – | – | Cc1ccc(NC(=O)c2cccc(N3CCOCC3)c2)cc1NC(=O)c1ccc(OCc2cscn2)cc1
60 µL/min/1e6 cells | – | 47 µL/min/mg | – | 1.85 | O=c1[nH]c2c(O)ccc([C@@H](O)CNCCc3cccc(CNCc4ccccc4Cl)c3)c2s1
23 µL/min/1e6 cells | 14 µL/min/mg | – | – | 1.86 | O=c1[nH]c2c(O)ccc([C@@H](O)CNCCOc3cccc(CNCCc4ccccc4F)c3)c2s1
29 µL/min/1e6 cells | 27 µL/min/mg | – | – | 1.99 | O=c1[nH]c2c(O)ccc([C@@H](O)CNCCc3cccc(CN4CCC(c5ccccc5)CC4)c3)c2s1
< 3 µL/min/1e6 cells | 32.4 µL/min/mg | – | – | – | O=c1c2c3n(c(=O)cc2[nH]n1-c1ccccc1Cl)CCCN(Cc1ccccc1)C3
123 µL/min/1e6 cells | 39.8 µL/min/mg | – | – | – | Nc1ccc(-c2ccccc2Cl)cc1
> 150 µL/min/1e6 cells | 6.03 µL/min/mg | – | – | – | O=C(Nc1cc(-c2ccnc(Nc3ccc(F)cc3)c2)ccn1)C1CCOCC1
51.3 µL/min/1e6 cells | 126 µL/min/mg | – | – | – | Cc1cc(OCC(=O)NCc2ccccc2)c2cc(Br)ccc2n1
> 150 µL/min/1e6 cells | 123 µL/min/mg | – | – | – | Cc1cc(OCC(=O)Nc2ccccc2)c2cc(Br)ccc2n1
18.2 µL/min/1e6 cells | 50.1 µL/min/mg | – | – | – | COc1ccc(C#Cc2ccc([C@@H]3[C@H](CO)N4CCCCN(C(=O)Nc5cccc(F)c5)C[C@@H]34)cc2)cc1
26 µL/min/1e6 cells | – | > 150 µL/min/mg | – | 2.48 | COc1ccc(CC(=O)NC(NC(=NC#N)Nc2ccccc2C)C(C)(C)C)cc1OC (centres undefined)
88 µL/min/1e6 cells | 29 µL/min/mg | – | – | 2.21 | Oc1nc2c(O)ccc(CCNCCCCCCOCCc3ccccc3)c2s1
> 150 µL/min/1e6 cells | – | > 150 µL/min/mg | – | – | COc1ccc(-c2nc3ccccc3c(=O)[nH]2)cc1
126 µL/min/1e6 cells | > 150 µL/min/mg | – | – | – | CCOC(=O)c1c(-c2ccccc2)nc2ccc(C)cn12
> 150 µL/min/1e6 cells | – | > 150 µL/min/mg | – | – | COc1ccc(N(C(C)=O)C(C(=O)NC2CCCC2)c2ccccc2F)c(OC)c1 (centres undefined)
> 150 µL/min/1e6 cells | – | > 150 µL/min/mg | – | – | COc1ccc(N(C(=O)c2ccco2)C(C(=O)NC2CCCC2)c2ccccc2F)c(OC)c1 (centres undefined)
8 µL/min/1e6 cells | 30 µL/min/mg | – | – | 2.39 | N#Cc1cccc(NCC(=O)Nc2c(Cl)ccc3nc(N4CC[C@@H](O)C4)ccc23)c1
6.17 µL/min/1e6 cells | 132 µL/min/mg | – | – | – | Cn1c(=O)c(-c2c(Cl)cccc2Cl)cc2cnc(Nc3ccc(F)cc3)nc21
12.9 µL/min/1e6 cells | 25.1 µL/min/mg | – | – | – | Cc1cnc(Nc2ccc(F)cc2Cl)nc1-c1c[nH]c(C(=O)N[C@H](CO)c2cccc(Cl)c2)c1
> 150 µL/min/1e6 cells | > 150 µL/min/mg | – | – | – | CCn1c(SCC(=O)Nc2cccc(C)c2)nnc1-c1ccccc1
